The text below walks through data of patent US12433876B2, “Septin inhibitors for treatment of cancers” (UNIVERSITY OF ROCHESTER, priority 2019, dated 2025).

For one test, the system named is JIMT-1 cells. Briefly: Live/Dead dye flow cytometry, JIMT-1. Format: cell-based. The following applies: JIMT-1, 3 μM, 48 hours, in vitro. The method, then:
(§1) Cell Lines, Cell Culture, and Reagents. PANC-1, BXPC-3 and CAPAN-1, SKOV-3, MCF7, MDA-MD-231 cells were obtained from ATCC and maintained in DMEM, RPMI-1640 and IMDM supplemented with 10% fetal calf serum penicillin (100 units/mL), and streptomycin (100 μg/mL) at 37° C. with 5% CO2 in a humidified incubator. JIMT-1 cells were purchased from AddexBio Inc, USA (catalog number: C0006005) and maintained in 10% FBS and antibiotic supplemented DMEM. […] The reaction was monitored using thin-layer chromatography plates with DCM-MeOH or pure ethyl acetate as eluent. Spots were monitored in a UV chamber. […] ICM scores for each compound and their poses were calculated and compared with FCF. […] Cell viability of PANC-1, BXPC-3 and CAPAN-1 pancreatic cancer cells treated with UR214-9 was measured using the Cell Titre96R Aqueous One Solution Cell Proliferation Assay (Promega Corp., catalog number: G3580) following the procedure published earlier. […] The cells were analyzed by a 305 flow cytometer and relative live and dead cell population was calculated by inputting equal number of cells in both vehicle and control group.
For orientation: Flow cytometry measures light scatter and fluorescence of single cells or particles in a stream.

Test [1] deals with JIMT-1 breast cancer cells. Briefly: RNA-Seq whole transcriptome analysis, JIMT-1. It is filed as cell-based, human. The settings on record: 10 nM Afatinib, 1 μM UR214-9.
Test [2] deals with human pancreatic cancer cells (BXPC-3 and PANC-1). The test is described as follows: MTS cell viability, pancreatic cancer cells. Format: cell-based. As to the method:
as §1

As for `O=C(Nc1cc(Cl)nc(Cl)c1)Nc1cccc(SC(F)(F)F)c1F` [UR214-9], in the test on JIMT-1 cells, the cell death result was “increased cell death”. For the same compound, in test [1], the “dysregulated genes, down” value was 4 and the “dysregulated genes, up” value was 7. Also, the viability entry in test [2] (BXPC-3 and PANC-1, 72 hours of treatment) was “reduced the viability”. Moreover, the “growth (MTS assay), dose dependently” value in test [2] (BXPC-3 and PANC-1, by 48th hour of drug exposure) was “reduced the growth”.
